Laboratory results reported in patent publication US20230312478A1, “HERBICIDAL COMPOUNDS” (SYNGENTA CROP PROTECTION AG, priority 2020, published 2023).

Experiments:
Assay type in all cases: in vivo
Settings in all cases: 250 g/ha, evaluated visually after 13 days, scale 0-5
Zea mays (ZEAMX) [1] = assay: Herbicidal efficacy, application pre-emergence
Method: (§1) Seeds of a variety of test species [Ipomoea hederacea (IPOHE); Zea mays (ZEAMX); Echinochloa crus-galli (ECHCG); Setaria faberi (SETFA); Abutilon theophrasti (ABUTH); Amaranthus retroflexus (AMARE)] were sown in standard sterilised soil in pots. After cultivation for one day (pre-emergence) or after 8 days cultivation (post-emergence) under controlled conditions in a glasshouse (at 24/16° C., day/night; 14 hours light; 65 % humidity), the plants were sprayed with an aqueous spray solution derived from the formulation of the technical active ingredient in acetone / water (50:50) solution containing 0.5% Tween 20 (polyoxyethelyene sorbitan monolaurate, CAS RN 9005-64-5), subsequently diluted in water, and sprayed to give the stated application rate.
(§2) The test plants were then grown under controlled conditions in a glasshouse (at 24/16° C., day/night; 14 hours light; 65 % humidity) and watered twice daily.
(§3) After 13 days for pre- and post-emergence, the test was evaluated visually for percentage phytotoxicity to the plant (where 5 = total damage to plant; 0 = no damage to plant).

Setaria faberi (SETFA) [2] = assay: Herbicidal efficacy, application pre-emergence; design: key: 5 = total damage to plant; 0 = no damage to plant
Method: as §1, §2, §3

[3] = tested on: Abutilon theophrasti (ABUTH); assay: Herbicidal efficacy, application pre-emergence; design: key: 5 = total damage to plant; 0 = no damage to plant
Method: as §1, §2, §3

[4] = tested on: Echinochloa crus-galli (ECHCG); assay: Herbicidal efficacy, application pre-emergence; design: key: 5 = total damage to plant; 0 = no damage to plant
Method: as §1, §2, §3

[5] = tested on: Amaranthus retroflexus (AMARE); assay: Herbicidal efficacy, application pre-emergence; design: key: 5 = total damage to plant; 0 = no damage to plant
Method: as §1, §2, §3

[6] = tested on: Ipomoea hederacea (IPOHE); assay: Herbicidal efficacy, application pre-emergence; design: key: 5 = total damage to plant; 0 = no damage to plant
Method: as §1, §2, §3

[7] = tested on: Abutilon theophrasti (ABUTH); assay: Herbicidal efficacy, application post-emergence; design: key: 5 = total damage to plant; 0 = no damage to plant
Method: as §1, §2, §3

Setaria faberi (SETFA) [8] = assay: Herbicidal efficacy, application post-emergence
Method: as §1, §2, §3

[9] = tested on: Echinochloa crus-galli (ECHCG); assay: Herbicidal efficacy, application post-emergence
Method: as §1, §2, §3

[10] = tested on: Amaranthus retroflexus (AMARE); assay: Herbicidal efficacy, application post-emergence
Method: as §1, §2, §3

[11] = tested on: Ipomoea hederacea (IPOHE); assay: Herbicidal efficacy, application post-emergence
Method: as §1, §2, §3

Zea mays (ZEAMX) [12] = assay: Herbicidal efficacy, application post-emergence
Method: as §1, §2, §3

Row | SMILES | phytotoxicity to the plant, ZEAMX (Zea mays (ZEAMX) [1]) | phytotoxicity to the plant, SETFA (Setaria faberi (SETFA) [2]) | phytotoxicity to the plant, ABUTH [3] | phytotoxicity to the plant, ECHCG [4] | phytotoxicity to the plant, AMARE [5] | phytotoxicity to the plant, IPOHE [6] | phytotoxicity to the plant, ABUTH [7] | phytotoxicity to the plant, SETFA (Setaria faberi (SETFA) [8]) | phytotoxicity to the plant, ECHCG [9] | phytotoxicity to the plant, AMARE [10] | phytotoxicity to the plant, IPOHE [11] | phytotoxicity to the plant, ZEAMX (Zea mays (ZEAMX) [12])
1 | Cc1cc(C2CN(C)C(=O)C2C(=O)Nc2cccc(F)c2F)nn1C(F)F (stereo not drawn) [Compound 33, 4-[1-(difluoromethyl)-5-methyl-pyrazol-3-yl]-N-(2,3-difluorophenyl)-1-methyl-2-oxo-pyrrolidine-3-carboxamide] | 4 | 5 | 1 | 5 | 2 | 1 | 1 | 4 | 4 | 2 | 4 | 3
2 | CCc1cc(C2CN(C)C(=S)C2C(=O)Nc2ccc(F)nc2F)nn1C(F)F (stereo not drawn) [Compound 86, 4-[1-(difluoromethyl)-5-ethyl-pyrazol-3-yl]-N-(2,6-difluoro-3-pyridyl)-1-methyl-2-thioxo-pyrrolidine-3-carboxamide] | 1 | 5 | 1 | 5 | 2 | 0 | 3 | 4 | 4 | 1 | 1 | 3
3 | Cc1c(Br)c(C2CN(C)C(=O)C2C(=O)Nc2ccc(F)cc2F)nn1C(F)F (stereo not drawn) [Compound 59, 4-[4-bromo-1-(difluoromethyl)-5-methyl-pyrazol-3-yl]-N-(2,4-difluorophenyl)-1-methyl-2-oxo-pyrrolidine-3-carboxamide] | 1 | 5 | 1 | 5 | 0 | 0 | 0 | 4 | 4 | 1 | 1 | 3
4 | CCc1cc(C2CN(C)C(=O)C2C(=O)Nc2ccc(F)cc2F)nn1C(F)F (stereo not drawn) [Compound 58, 4-[1-(difluoromethyl)-5-ethyl-pyrazol-3-yl]-N-(2,4-difluorophenyl)-1-methyl-2-oxo-pyrrolidine-3-carboxamide] | 3 | 5 | 0 | 5 | 0 | 1 | 0 | 4 | 4 | 1 | 3 | 2
5 | CCc1cc(C2CN(C)C(=O)C2C(=O)Nc2ccc(F)nc2F)nn1C(F)F (stereo not drawn) [Compound 82, 4-[1-(difluoromethyl)-5-ethyl-pyrazol-3-yl]-N-(2,6-difluoro-3-pyridyl)-1-methyl-2-oxo-pyrrolidine-3-carboxamide] | 3 | 5 | 1 | 5 | 1 | 3 | 1 | 4 | 4 | 1 | 4 | 4
6 | Cc1c(Br)c(C2CN(C)C(=O)C2C(=O)Nc2ccc(F)nc2F)nn1C(F)F (stereo not drawn) [Compound 83, 4-[4-bromo-1-(difluoromethyl)-5-methyl-pyrazol-3-yl]-N-(2,6-difluoro-3-pyridyl)-1-methyl-2-oxo-pyrrolidine-3-carboxamide] | 1 | 5 | 0 | 5 | 0 | 0 | 1 | 3 | 4 | 1 | 1 | 4
7 | CCc1cc(C2CN(C)C(=S)C2C(=O)Nc2ccc(F)cc2F)nn1C(F)F (stereo not drawn) [Compound 62, 4-[1-(difluoromethyl)-5-ethyl-pyrazol-3-yl]-N-(2,4-difluorophenyl)-1-methyl-2-thioxo-pyrrolidine-3-carboxamide] | 2 | 5 | 0 | 5 | 0 | 0 | 1 | 4 | 4 | 1 | 1 | 1
8 | CCc1cc(C2CN(C)C(=S)C2C(=O)Nc2cccc(F)c2F)nn1C(F)F (stereo not drawn) [Compound 38, 4-[1-(difluoromethyl)-5-ethyl-pyrazol-3-yl]-N-(2,3-difluorophenyl)-1-methyl-2-thioxo-pyrrolidine-3-carboxamide] | 4 | 5 | 0 | 5 | 0 | 2 | 0 | 4 | 4 | 1 | 4 | 3
9 | Cc1cc(C2CN(C)C(=O)C2C(=O)Nc2ccc(F)nc2F)nn1C(F)F (stereo not drawn) [Compound 81, 4-[1-(difluoromethyl)-5-methyl-pyrazol-3-yl]-N-(2,6-difluoro-3-pyridyl)-1-methyl-2-oxo-pyrrolidine-3-carboxamide] | 2 | 5 | 0 | 5 | 0 | 2 | 0 | 4 | 4 | 2 | 1 | 4
10 | Cc1cc(C2CN(C)C(=O)C2C(=O)Nc2ccc(F)cc2F)nn1C(F)F (stereo not drawn) [Compound 57, 4-[1-(difluoromethyl)-5-methyl-pyrazol-3-yl]-N-(2,4-difluorophenyl)-1-methyl-2-oxo-pyrrolidine-3-carboxamide] | 2 | 5 | 1 | 5 | 1 | 1 | 1 | 4 | 4 | 1 | 3 | 2
